Reference: patent US7094770B2, “3′-or 2′-hydroxymethyl substituted nucleoside derivatives for treatment of hepatitis virus infections” (Pharmasset, Ltd., priority 2000, dated 2006)
Read-outs that look alike come from different tables or passages of the source.

Legend:
[1] = test system: HIV; conditions: literature; cited from earlier work
[2] = test system: HIV-1; assay: Anti-HIV evaluation in human PBM cells; format: cell-based; conditions: for EC50: HIV-1
Description: (§1) Human PBM cells from healthy donors, seronegative for HIV-1 and HBV, are isolated by a single-step Ficoll-Hypaque discontinuous gradient centrifugation and propagated as described previously (Schinazi et al., Antimicrobial Agents Chemother., 1990, 34:1061; 1992, 36:2423; 1993, 37:875). Compounds are screened for activity against HIV-1 and cytotoxicity by a protocol reported previously reported by Schinazi, et al. The prototype strain of HIV-1LAI obtained from the Centers for Disease Control and Prevention, Atlanta, Ga., is used as the standard virus for the studies in human PBM cells.

[3] = Cytotoxicity in PBM cells; format: cell-based, human; conditions: human
Protocol: (§2) We also perform toxicity assays by measuring the inhibition of uptake of […] dye by treated cells. These assays are done in 96 well plates. After the standard 10 day treatment regimen medium is removed and PBS containing MTS dye added to each well. After a 2 hour incubation the absorbance of the metabolized product is measured at 490 nm.
as §1

[4] = Cytotoxicity in Vero cells; format: cell-based; conditions: African green monkey
Protocol: as §2

[5] = test system: HBV; assay: Cell culture assay for anti-HBV activity (2.2.15 cells, HBV DNA in medium by Southern blot); format: cell-based, Hepatitis B virus; conditions: for Antiviral activity (in words): virus not named
Description: We follow the protocol described by Korba and Gerin(Antiviral Res., 1992, 19:55) and Pai et al. (Antimicrobial Agents Chemother., 1996, 40:380) which is used widely in the field. The HepG 2 2.2.15 cells contain a stably integrated HBV genome, the transcript from which serves as a template for viral replication. The cells produce virions which are elaborated into the medium. The production of the virion DNA is monitored by analysis of medium by Southern blotting. Drugs which inhibit viral replication reduce the levels of virion DNA in the medium, relative to controls.
Confluent cells in 24 well tissue culture dishes are treated with test compounds starting at 1 nM and extending logarithmically to 10 μM (1 nM, 3.2, 10 nM, 32, 100 nM, 1 μM, 10 μM […]). Medium is changed […] every 3 days and DNA extracted from the 3, 6, and […] day samples. The virions are concentrated by polyethylene glycol precipitation (equal volume addition of PEG 8000). After cooling on ice the samples are spun and the pellets treated with SDS and Proteinase K followed by Phenol:Chloroform extraction and ethanol precipitation of the DNA. The DNA is analyzed for HBV sequences by Southern hybridization. The probe used for the analysis is a ^32P labeled Eco RI fragment from the HBV clone described by Korba et al. 3TC is used as a positive control compound with known activity against HBV.
System: The most widely used system for the study of anti-HBV agents is the hepatoma cell culture system with the HBV genome. These cells are designated as the 2.2.15 cells, AD38 cells and AD79 cells. The 2.2.15 cells were generated by the transfection of the human hepatoma cells—HepG2 with HBV DNA. (Sells, et al., Proc. Natl. Acad. Sci. USA 84:1005–1009, 1987) HBV viral replication takes place in these cells. The HBV replication can be monitored intracellularly as well as extracellularly in these cells.
Assay for Anti-HBV agents: 2.215 cells are grown in multi-well dishes in RPMI medium supplemented with 4% fetal bovine serum. After 3 to 4 days of growing the cells, they are treated with varying concentrations of the test compound(s). The test compounds are dissolved in DMSO or sterile water. Cultures without the addition of the test compounds serve as controls. The addition of the test compound(s) is repeated at 3-day intervals. The medium is changed and replaced with appropriate concentration of the test compound. At the end of the 9-day treatment period, the culture medium is harvested and processed for viral DNA. The viral DNA thus obtained is analyzed by Southern blot analysis. After the Southern transfer, the blot is subjected to hybridization to an HBV specific probe to detect HBV DNA. The hybriodization is carried out overnight. After the hybridization, free probe is removed by washing of the blots. The specific hybridization is visualized by autoradiography. Inhibition produced by the test compound is calculated with reference to the levels of HBV DNA in the control samples.

[6] = Cytotoxicity in CEM cells; format: cell-based; conditions: human
Protocol: as §2

[7] = Cytotoxicity in HepG2 cells; format: cell-based; conditions: human
Protocol: as §2

[8] = Human immunodeficiency virus 1, PBMC
[9] = Hepatitis B virus, read-out: Anti-HBV EC50

| Compound | Activity against HIV (in words) [1] | EC50 [2, 8] | IC50 [3] | IC50 at 10 day [4] | EC50 [5, 9] | IC50 at 10 day [6] | Inhibition of HIV replication (in words) [2] | IC50 at 10 day [7] | Inhibition of HBV replication (in words) [5] | EC50 [2] | EC50 ([5]; read-out: Anti-HBV EC50) | Antiviral activity (in words) [5] | EC50 ([5]; Hepatitis B virus, read-out: Anti-HBV EC50 (μM)) |
| --- | --- | --- | --- | --- | --- | --- | --- | --- | --- | --- | --- | --- | --- |
| Nc1ncnc2c1ncn2[C@H]1C[C@H](CO)[C@@H](CO)O1 [2′,3′-dideoxy-3′-hydroxymethyl-adenosine] | good activity |  |  |  |  |  |  |  |  |  |  |  |  |
| Cc1cn(C2CC3COCC3O2)c(=O)[nH]c1=O (stereo not drawn) [Compound 1 (Series 1)] |  | > 100 µM | > 100 µM | > 100 µM | > 10 µM |  |  |  |  |  |  |  |  |
| Cc1cn(C2OC(CO)C(CO)C2F)c(=O)[nH]c1=O (stereo not drawn) [Compound 1 (Series 2)] |  | > 100 µM | > 100 µM |  | > 10 µM |  |  |  |  |  |  |  |  |
| Cc1cn(C2OC(CO)C(CO)C2F)c(=O)nc1N (stereo not drawn) [Compound 2 (Series 2)] |  | > 100 µM | > 100 µM | > 100 µM | > 10 µM |  |  |  |  |  |  |  |  |
| Cc1cn(C2CC(CCl)C(CO)O2)c(=O)[nH]c1=O (stereo not drawn) [Compound 3 (Series 1)] |  | > 100 µM | > 100 µM | > 100 µM | > 10 µM |  |  |  |  |  |  |  |  |
| Cc1cn(C2CC(CI)C(CO)O2)c(=O)[nH]c1=O (stereo not drawn) [Compound 5 (Series 1)] |  | > 100 µM | > 100 µM | > 100 µM | > 10 µM |  |  |  |  |  |  |  |  |
| CC1=CC(C2CC(CO)N(C)O2)C(=O)NC1=O (stereo not drawn) [Compound 5 (Series 2)] |  | > 100 µM | > 100 µM |  | > 10 µM |  |  |  |  |  |  |  |  |
| Cc1cn(C2CC(CO)N(C)O2)c(=O)[nH]c1=O (stereo not drawn) [Compound 6 (Series 2)] |  | > 100 µM | > 100 µM | > 100 µM | > 10 µM | > 100 µM |  |  |  |  |  |  |  |
| Nc1ccn(C2OC(CO)C(CO)C2F)c(=O)n1 (stereo not drawn) [Compound 7 (Series 2)] |  | 2.6 µM | 48.8 µM | 56 µM | 0.04 µM | 5.1 µM | potent inhibitors | > 100 µM | potent inhibitors |  |  |  |  |
| O=c1ccn(C2OC(CO)C(CO)C2F)c(=O)[nH]1 (stereo not drawn) [Compound 13 (Series 2)] |  | > 100 µM | > 100 µM | > 100 µM | > 10 µM | > 100 µM |  |  |  |  |  |  |  |
| Cc1cn(C2CC(CO)C(CO)O2)c(=O)[nH]c1=O (stereo not drawn) [Compound 20 (Series 1)] |  |  | > 100 µM | > 100 µM |  | > 100 µM |  |  |  | 0.8 µM | 0.23 µM | moderate activity |  |
| CC1C(CO)OC(n2ccc(N)nc2=O)C1F (stereo not drawn) [Compound 20 (Series 2)] |  | > 100 µM | > 100 µM | > 100 µM | > 10 µM | > 100 µM | potent inhibitors |  | potent inhibitors |  |  |  |  |
| CC1C(CO)OC(n2cc(F)c(N)nc2=O)C1F (stereo not drawn) [Compound 21 (Series 2)] |  | > 100 µM | > 100 µM | > 100 µM | > 10 µM | > 100 µM |  |  |  |  |  |  |  |
| Cc1cn(C2OC(CO)C(C)C2F)c(=O)[nH]c1=O (stereo not drawn) [Compound 22 (Series 2)] |  | > 100 µM | > 100 µM | > 100 µM | > 10 µM | > 100 µM |  |  |  |  |  |  |  |
| Nc1ccn(C2OC(CO)C(CCO)C2F)c(=O)n1 (stereo not drawn) [Compound 24 (Series 2)] |  | > 100 µM | > 100 µM | > 100 µM | > 10 µM | > 100 µM |  |  |  |  |  |  |  |
| Cc1cn(C2CC(CO)=NO2)c(=O)[nH]c1=O (stereo not drawn) [Compound 28 (Series 2)] |  | > 100 µM | > 100 µM | > 100 µM | > 10 µM | > 100 µM |  |  |  |  |  |  |  |
| CCOP(=O)(CCC1=NOC(n2cc(C)c(=O)[nH]c2=O)C1)OCC (stereo not drawn) [Compound 33 (Series 2)] |  | > 100 µM | > 100 µM | > 100 µM |  | > 100 µM |  |  |  |  |  |  | > 10 µM |
| CN1OC(n2ccc(N)nc2=O)CC1CO (stereo not drawn) [Compound 39 (Series 2)] |  | > 100 µM | > 100 µM | > 100 µM | > 10 µM | > 100 µM |  |  |  |  |  |  |  |
| Cc1cn(C2OC(CO)C(N(C)O)[C@@H]2F)c(=O)[nH]c1=O (stereo partly drawn) [Compound 55 (Series 2)] |  | 68 µM | > 100 µM | > 100 µM | > 10 µM | > 100 µM |  |  |  |  |  |  |  |
| CN(O)C1C(CO)OC(n2cc(F)c(=O)[nH]c2=O)C1F (stereo not drawn) [Compound 60 (Series 2)] |  | > 100 µM | > 100 µM | > 100 µM | > 10 µM | > 100 µM |  |  |  |  |  |  |  |
| CNC1C(CO)OC(n2cc(C)c(=O)[nH]c2=O)C1F (stereo not drawn) [Compound 68 (Series 2)] |  | > 100 µM | > 100 µM | > 100 µM | > 10 µM | > 100 µM |  |  |  |  |  |  |  |
| CNC1C(CO)OC(n2ccc(=O)[nH]c2=O)C1F (stereo not drawn) [Compound 69 (Series 2)] |  | > 100 µM | > 100 µM | > 100 µM | > 10 µM | > 100 µM |  |  |  |  |  |  |  |
| CNC1C(CO)OC(n2ccc(N)nc2=O)C1F (stereo not drawn) [Compound 70 (Series 2)] |  | 2.4 µM | > 100 µM | > 100 µM | ≤ 10 µM | 109 µM | potent inhibitors |  | potent inhibitors |  |  |  |  |
| CCCCN(O)C1C(CO)OC(n2cc(C)c(=O)[nH]c2=O)C1F (stereo not drawn) [Compound 71 (Series 2)] |  | 81.4 µM | 13 µM | 68.5 µM | < 10 µM | 30.1 µM |  |  |  |  |  | moderate activities |  |
